Laboratory results from patent US10533010B2, “Substituted indole Mcl-1 inhibitors” (Vanderbilt University, priority 2014, dated 2020).

molecular target: recombinant Mcl-1 (residues 172-327) (Homo sapiens (Human), UniProt Q07820); assay: Fluorescence polarization anisotropy competition assay (FITC-Bak or FITC-Bim BH3 peptide) with Mcl-1; type: binding; settings: Table 2; Ki bins given in nM; FITC-Bak or FITC-Bim peptide competition; Ki converted from IC50; read-out: Ki for Inhibition of Mcl-1
Sequence (Q07820 172-327): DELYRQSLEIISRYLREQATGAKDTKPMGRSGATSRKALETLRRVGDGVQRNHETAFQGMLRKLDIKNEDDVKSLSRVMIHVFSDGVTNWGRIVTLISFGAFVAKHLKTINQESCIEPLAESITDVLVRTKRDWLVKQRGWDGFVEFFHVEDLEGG

Compound	Ki [nM]
Cc1cc(OCCCc2c(C(=O)NCC(=O)NS(=O)(=O)c3ccccc3)[nH]c3ccccc23)cc(C)c1Cl [I-5, 3-(3-(4-chloro-3,5-dimethylphenoxy)propyl)-N-(2-oxo-2-(phenylsulfonamido)ethyl)-1H-indole-2-carboxamide]	101 to 299
Cc1cc(OCCCc2c(C(=O)NCc3ccc(N4CCCC4)c(C(=O)O)c3)[nH]c3c(-c4c(C)nn(C)c4C)cccc23)cc(C)c1Cl [I-76, 5-((3-(3-(4-chloro-3,5-dimethylphenoxy)propyl)-7-(1,3,5-trimethyl-1H-pyrazol-4-yl)-1H-indole-2-carboxamido)methyl)-2-(pyrrolidin-1-yl)benzoic acid]	51 to 100
Cc1cc(OCCCc2c(C(=O)NCCC(=O)NS(=O)(=O)c3ccc4ccccc4c3)[nH]c3ccccc23)cc(C)c1Cl [I-16, 3-(3-(4-chloro-3,5-dimethylphenoxy)propyl)-N-(3-(naphthalene-2-sulfonamido)-3-oxopropyl)-1H-indole-2-carboxamide]	101 to 299
Cc1cc(OCCCc2c3n(c4c(-c5c(C)nn(C)c5C)c(Cl)ccc24)CCCN(Cc2cc(C(=O)O)c(C)o2)C3=O)cc(C)c1Cl [I-347, 5-((8-chloro-1-(3-(4-chloro-3,5-dimethylphenoxy)propyl)-1-oxo-7-(1,3,5-trimethyl-1H-pyrazol-4-yl)-4,5-dihydro-1H-[1,4]diazepino[1,2-a]indol-2(3H)-yl)methyl)-2-methylfuran-3-carboxylic acid]	< 50
Cc1cc(OCCCc2c3n(c4c(-c5c(C)nn(C)c5C)c(Cl)ccc24)CCCN(Cc2cc(OCCCC(C)C)cc(C(=O)O)c2)C3=O)cc(C)c1Cl [I-301, 3-((8-chloro-11-(3-(4-chloro-3,5-dimethylphenoxy)propyl)-1-oxo-7-(1,3,5-trimethyl-1H-pyrazol-4-yl)-4,5-dihydro-1H-[1,4]diazepino[1,2-a]indol-2(3H)-yl)methyl)-5-((4-methylpentyl)oxy)benzoic acid]	< 50
Cc1cc(OCCCc2c3n(c4c(-c5c(C)nn(C)c5C)c(Cl)ccc24)CCCN(Cc2cc(C(=O)O)cc(OCCCC(C)C)n2)C3=O)cc(C)c1Cl [I-303, 2-((8-chloro-11-(3-(4-chloro-3,5-dimethylphenoxy)propyl)-1-oxo-7-(1,3,5-trimethyl-1H-pyrazol-4-yl)-4,5-dihydro-1H-[1,4]diazepino[1,2-a]indol-2(3H)-yl)methyl)-6-((4-methylpentyl)oxy)isonicotinic acid]	< 50
Cc1cc(OCCCc2c(C(=O)NCc3cc(C(=O)O)cc(N4CCN(CCC(C)C)CC4)n3)[nH]c3c(-c4c(C)nn(C)c4C)c(Cl)ccc23)cc(C)c1Cl [I-285, 2-((6-chloro-3-(3-(4-chloro-3,5-dimethylphenoxy)propyl)-7-(1,3,5-trimethyl-1H-pyrazol-4-yl)-1H-indole-2-carboxamido)methyl)-6-(4-isopentylpiperazin-1-yl)isonicotinic acid]	< 50
Cc1cc(OCCCc2c(C(=O)Nc3ccc(C(=O)O)nc3)[nH]c3c(-c4c(C)nn(C)c4C)c(Cl)ccc23)cc(C)c1Cl [I-185, 5-(6-chloro-3-(3-(4-chloro-3,5-dimethylphenoxy)propyl)-7-(1,3,5-trimethyl-1H-pyrazol-4-yl)-1H-indole-2-carboxamido)picolinic acid]	< 50
Cc1cc(OCCCc2c3n(c4c(-c5c(C)nn(C)c5C)c(Cl)ccc24)CCCN(c2cccc(C(=O)NS(=O)(=O)C4CC4)c2)C3=O)cc(C)c1Cl [I-369, 3-(8-chloro-11-(3-(4-chloro-3,5-dimethylphenoxy)propyl)-1-oxo-7-(1,3,5-trimethyl-1H-pyrazol-4-yl)-4,5-dihydro-H-[1,4]diazepino[1,2-a]indol-2(3H)-yl)-N-(cyclopropylsulfonyl)benzamide]	< 50
Cc1cc(OCCCc2c(C(=O)NC3CCN(C(=O)CC(=O)O)CC3)[nH]c3c(-c4c(C)nn(C)c4C)cccc23)cc(C)c1Cl [I-318, 3-(4-(3-(3-(4-chloro-3,5-dimethylphenoxy)propyl)-7-(1,3,5-trimethyl-1H-pyrazol-4-yl)-1H-indole-2-carboxamido)piperidin-1-yl)-3-oxopropanoic acid]	< 50

Further lines, results first:

Ki [nM]	Compound
< 50	Cc1cc(OCCCc2c3n(c4c(-c5c(C)nn(C)c5C)c(Cl)ccc24)CCCN(c2cc(C(=O)O)c4c(ccn4C)c2)C3=O)cc(C)c1Cl [I-250, 5-(8-chloro-11-(3-(4-chloro-3,5-dimethylphenoxy)propyl)-1-oxo-7-(1,3,5-trimethyl-1H-pyrazol-4-yl)-4,5-dihydro-1H-[1,4]diazepino[1,2-a]indol-2(3H)-yl)-1-methyl-1H-indole-7-carboxylic acid]
< 50	Cc1cc(OCCCc2c3n(c4c(-c5c(C)nn(C)c5C)c(Cl)ccc24)CCCN(c2nc(C(=O)O)cs2)C3=O)cc(C)c1Cl [I-359, 2-(8-chloro-11-(3-(4-chloro-3,5-dimethylphenoxy)propyl)-1-oxo-7-(1,3,5-trimethyl-1H-pyrazol-4-yl)-4,5-dihydro-1H-[1,4]diazepino[1,2-a]indol-2(3H)-yl)thiazole-4-carboxylic acid]
< 50	Cc1cc(OCCCc2c3n(c4c(-c5c(C)nn(C)c5C)c(Cl)ccc24)CCN(Cc2cccc(C(=O)O)c2)C3=O)cc(C)c1Cl [I-141, 3-((7-chloro-10-(3-(4-chloro-3,5-dimethylphenoxy)propyl)-1-oxo-6-(1,3,5-trimethyl-1H-pyrazol-4-yl)-3,4-dihydropyrazino[1,2-a]indol-2(1H)-yl)methyl)benzoic acid]
< 50	Cc1cc(OCCCc2c3n(c4c(-c5c(C)nn(C)c5C)c(Cl)ccc24)[C@@H](C)CN(c2cccc(C(=O)O)c2)C3=O)cc(C)c1Cl [I-165, (S)-3-(7-chloro-10-(3-(4-chloro-3,5-dimethylphenoxy)propyl)-4-methyl-1-oxo-6-(1,3,5-trimethyl-1H-pyrazol-4-yl)-3,4-dihydropyrazino[1,2-a]indol-2(1H)-yl)benzoic acid]
< 50	Cc1cc(OCCCc2c(C(=O)Nc3ccc(C(=O)O)c(N4CCOCC4)c3)[nH]c3c(-c4c(C)nn(C)c4C)c(Cl)ccc23)cc(C)c1Cl [I-91, 4-(6-chloro-3-(3-(4-chloro-3,5-dimethylphenoxy)propyl)-7-(1,3,5-trimethyl-1H-pyrazol-4-yl)-1H-indole-2-carboxamido)-2-morpholinobenzoic acid]
< 50	Cc1cc(OCCCc2c(C(=O)N3CCN(c4ccc(C(=O)O)cc4)CC3)n(Cc3cccnc3)c3c(-c4c(C)nn(C)c4C)c(Cl)ccc23)cc(C)c1Cl [I-338, 4-(4-(6-chloro-3-(3-(4-chloro-3,5-dimethylphenoxy)propyl)-1-(pyridin-3-ylmethyl)-7-(1,3,5-trimethyl-1H-pyrazol-4-yl)-1H-indole-2-carbonyl)piperazin-1-yl)benzoic acid]
< 50	Cc1cc(OCCCc2c3n(c4c(-c5c(C)nn(C)c5C)c(Cl)ccc24)CCN(Cc2ccc(C(=O)O)o2)C3=O)cc(C)c1Cl [I-143, 5-((7-chloro-10-(3-(4-chloro-3,5-dimethylphenoxy)propyl)-1-oxo-6-(1,3,5-trimethyl-1H-pyrazol-4-yl)-3,4-dihydropyrazino[1,2-a]indol-2(1H)-yl)methyl)furan-2-carboxylic acid]

same assay, conditions: Table 2; Ki bins given in μM; FITC-Bak or FITC-Bim peptide competition; Ki converted from IC50; read-out: Ki for Inhibition of Mcl-1

Compound	Ki [nM]
Cc1cc(OCCCc2c(C(=O)NCCc3c(C)n(C)c4ccccc34)[nH]c3ccccc23)cc(C)c1Cl [I-44, 3-(3-(4-chloro-3,5-dimethylphenoxy)propyl)-N-(2-(1,2-dimethyl-1H-indol-3-yl)ethyl)-1H-indole-2-carboxamide]	1000 to 9990
